Holding throughout (type): cell-based
The subject of one assay is phospho-p38. The assay is described as follows: Western blot of phospho-p38 in TGFβ-treated human orbital fibroblasts. As to conditions: for reduction of phospho-p38 levels: 250 nM. The method, then:
Therefore, activity of another signaling molecule that is involved in myofibroblast formation, namely the mitogen-activated protein kinase (MAPK), p38, was measured to assess its potential role in the observed results. P38 MAPKs are a class of protein kinases that respond to TGFβ, ultraviolet radiation and other stimuli. Phosphorylation and activation of p38 can lead to numerous downstream signaling pathways, including phosphorylation of Smad proteins.
To further test if salinomycin targets the p38 pathway to block myofibroblast formation, a plasmid encoding a mutant MKK6 (pcDNA3-flag MKK6(glu)) protein was used. MKK6 phosphorylates and thus activates p38 in response to extracellular signals such as TGFβ or other environmental stresses. The MKK6(glu) protein, which harbors glutamate mutations at amino acid residues serine 207 and threonine 211, is constitutively active and thus phosphorylates p38 irrespective of signal (Raingeaud et al., “MKK3- and MKK6-regulated gene expression is mediated by the p38 mitogen-activated protein kinase signal transduction pathway,” Mol. Cell. Biol. 16:1247-1255 (1996), which is hereby incorporated by reference in its entirety). Thus, if salinomycin is blocking the p38 signaling pathway, MKK6(glu) should overcome the effect of salinomycin. MKK6(glu) was first tested using the SBE4-TK-luc reporter plasmid. The luciferase reporter plasmid was introduced into human fibroblasts along with the MKK6(glu) plasmid or a control plasmid (pcDNA3-GFP). Cells were then treated with vehicle, TGFβ or TGFβ plus 250 nM salinomycin. After 24 hours, luciferase activity was measured (FIG. 6A). […] MKK6(glu) was further tested to assess whether it could attenuate the ability of salinomycin to inhibit p38 phosphorylation. Control or MKK6(glu) plasmids were introduced into human fibroblasts by electroporation and then cells were treated with TGFβ for 24 hours. Following treatment, cells were analyzed for flag-MKK6(glu) expression and phospho-p38 by Western blot (FIG. 6B). […] However, MKK6(glu) expression leads to a large induction of phospho-p38, regardless of salinomycin treatment. As a third test, control or MKK6(glu) plasmids were introduced into human fibroblasts by electroporation. After electroporation, cells were induced to form myofibroblasts by TGFβ treatment for 72 hours. Samples were analyzed for expression of flag-MKK6(glu), αSMA, calponin and β-tubulin by Western blot (FIG. 6C).
On the technique in general: A western blot detects proteins with antibodies after separation by electrophoresis.

The test system of assay [1] is TGFβ-dependent myofibroblast formation in primary human fibroblasts. The assay is described as follows: Myofibroblast formation assay in primary human fibroblasts (morphology, Western blot) for Spectrum hits. Here is the method: Using the lowest effective dose from the secondary screening assay, PPT (5 μM), ASC (1 μM), BTS (1 μM), and AXD (1 μM) were compared to 0.1 μM SNC using primary human fibroblasts (FIG. 13). The myofibroblast formation assay consists of the following protocol: fibroblasts are treated with the aforementioned small molecules and treated with TGFβ (1 ng/ml) for 72 hours. The cells were then either photographed for morphological analysis or collected, lysed and analyzed by Western blot for the myofibroblast markers alpha-smooth muscle actin (αSMA) and calponin. β-tubulin was used as a loading control.
PPT was used at 1 and 5 μM (lanes 3 and 4), BTS was used at 0.1 and 1 μM (lanes 5 and 6), ASC was used at 0.1 and 1 μM (lanes 7 and 8), SNC was used at 100 nM and 1 μM (lanes 9 and 10), and AXD was used at 0.1 and 1 μM (lanes 11 and 12).

The test system of assay [2] is TGFβ-induced myofibroblast formation in human fibroblasts. Kind of assay: Western blot of myofibroblast markers αSMA and calponin in TGFβ-treated human (TED orbital) fibroblasts. Particulars: for expression of αSMA and calponin: TGFβ; for expression of αSMA and calponin, dose dependence: 10-250 nM. The method, then: TED fibroblasts were treated with TGFβ (1 ng/ml) in the presence or absence of 10-250 nM salinomycin for 72 hours to allow formation of myofibroblasts. After 72 hours, cells were harvested and analyzed by Western blot. As expected, the fibroblasts robustly responded to TGFβ, expressing high levels of αSMA and calponin (FIG. 2A). […] At 50 nM salinomycin, expression of αSMA was reduced by 4-fold over TGFβ treatment alone. Furthermore, at 250 nM salinomycin, αSMA expression was reduced by approximately 16-fold, to levels at or below untreated fibroblasts. […] Another key role of myofibroblasts in scar formation is the production of collagen. Whether salinomycin could block myofibroblast collagen production was assessed. Cells were treated with TGFβ and salinomycin as above and after 72 hours, culture medium was collected and analyzed for collagen levels using a specific collagen I antibody and slot blot analysis.
To test these four compounds, human fibroblasts were treated with TGFβ in the absence or presence of 250 nM of either salinomycin, narasin, clioquinol or monensin for 72 hours. After treatment, cell lysates were harvested and analyzed for the presence of the myofibroblast markers, αSMA and calponin (FIG. 3B).

Take `CC[C@@H](C(=O)[C@@H](C)[C@@H](O)[C@H](C)[C@@H]1O[C@@H]([C@@H](CC)C(=O)O)CC[C@@H]1C)[C@H]1O[C@]2(C=C[C@@H](O)[C@]3(CC[C@@](C)([C@H]4CC[C@](O)(CC)[C@H](C)O4)O3)O2)[C@H](C)C[C@@H]1C` [salinomycin]: the results for the “reduction of phospho-p38 levels” value with phospho-p38 (5 hours) and in the assay with phospho-p38 (24 hours) were “more than 2 fold” and 10 fold, respectively. In addition, the phospho-p38 levels entry in the assay on phospho-p38 (5 hours TGFβ treatment) is “completely blocked”. Further, the “inhibition of phospho-p38” value in the assay with phospho-p38 (24 hours TGFβ treatment) is reported as 80%. Moreover, the “phosphorylation of p38” value in the assay with phospho-p38 (control plasmid, TGFβ 24 hours) is reported as “blocks phosphorylation of p38”. Also, the “α-SMA and calponin expression in human fibroblasts” value in assay [1] (FIG. 14 lanes: PPT 1, 5 uM, BTS, ASC, AXD 0.1, 1 uM, SNC 100 nM, 1 uM) is “inhibit β-dependent α-SMA and calponin expression”. Moreover, the “expression of Thy1” value in assay [1] (both doses, 100 nM and 1 μM) is “inhibits expression of Thy1”. Further, the “TGFβ-dependent αSMA and calponin (marker) expression” value in assay [1] (lower dose, 100 nM) was “effective even at the lower dose”. Further, in assay [1] (lowest effective dose from secondary screen: PPT 5 μM, ASC, BTS, AXD 1 μM, SNC 0.1 μM, TGFβ 1 ng/ml, 72 hours), the “myofibroblast formation / phenotype” value is “inhibit myofibroblast phenotype”. The “reduction of αSMA expression over TGFβ treatment alone” value in assay [2] (50 nM, TGFβ 1 ng/ml, 72 hours) is 4 fold; in assay [2] (250 nM, TGFβ 1 ng/ml, 72 hours), “approximately 16 fold”. The “expression of αSMA and calponin” value in assay [2] (250 nM, 72 hours) is “lower than vehicle levels”; in assay [2] (250 nM, 72 hours, listed as Salinomycin), “inhibited expression of αSMA and calponin”. In assay [2] (250 nM, primary human fibroblasts), the “TGFβ-dependent expression of alpha smooth muscle actin, calponin and collagen” value is “blocked”. The “expression of αSMA and calponin, dose dependence” value in assay [2] (TGFβ 1 ng/ml, 72 hours) was “dose dependent manner”; in assay [2] (TGFβ 1 ng/ml, 72 hours, listed as Salinomycin) it was “dose-dependent decrease”. Further, the “expression of myofibroblast markers αSMA and calponin” value in assay [2] (100 and 200 nM, TGFβ 1 ng/ml, 72 hours, densitometry) is listed as “below baseline levels”.

(Values after patent US10548911B2, “Small molecule anti-scarring agents” (UNIVERSITY OF ROCHESTER, priority 2014, dated 2020).)
